Source: patent EP3153515A1, “COMPOUNDS FOR INHIBITING HEPATITIS C VIRUS, PHARMACEUTICAL COMPOSITIONS AND USES THEREOF” (priority 2014, dated 2015)
Where two headings read alike, the source gives them in different places.

Key:
HCV NS5A replicon GT-3a = experiment: HCV NS5A replicon anti-viral activity (EC50), GT-3a; type: cell-based; settings: Hepatitis C virus, genotype 1a / genotype 3a / genotype 6a, read-out: Inhibitory activity against various HCV-NS5A subtypes(EC50, GT-1a to GT-6a) GT-3a
Source text: (§1) The autonomous replication level of HCV in liver cells in vitro is very low, and the only animal that can be infected by HCV is chimpanzee, therefore there is no appropriate animal model currently available for preclinical pharmacodynamic study. Some researchers have transplanted human liver tissue infected with HCV in vitro into immune deficient mice to establish an in vivo mice model, but these mice are hard to raise and the model is unstable and short of normal immunologic reaction. Moreover, the model has significant difference with the pathogenic process of hepatitis C, therefore, it has not been used for animal model to assess the action of anti-HCV medicine yet. The progress of the development of anti-viral drugs for the treatment of HCV infection had been very slow because the pathogenic mechanism and life cycle of HCV were unclear before 1999 due to the lack of cell culture system for effective multiplication of HCV. But researchers managed to achieve a breakthrough in 1999 after numerous attempts. An effective cell culture model-replicon system in which HCV is capable of autonomous replication in transfected human hepatic carcinoma cell line Huh-7 had been established in that year on the basis of subgenomic HCV RNA built with genetic engineering.
(§2) The above-mentioned cell culture model-replicon system which has been widely accepted in the industry is used in this invention for ex vivo experiments and subsequent assessment of drugs based on the experiment results.
(§3) The therapeutic effect of the compounds of this invention on HCV infection can be preliminarily assessed through the following preclinical in vitro inhibitory action test and can be further confirmed in clinical trials. Other methods used in the invention are also quite familiar to professionals in this field with ordinary technical knowledge. Method for testing the anti-viral activity(EC50) in HCV NS5A replicon system: • The viral replication level in infected cells was determined by testing Renilla luciferase with the newly established dual-reporter gene replicon system. There was a good linear relation between the expression level of the reporter gene and the HCV RNA replication level and viral protein expression level. The anti-viral activity was determined for 3 replicates in 3 replicate cells at five(5) 1:2 diluted concentration gradients, with 1 to 2 positive controls. The EC50 of the compounds was calculated in the end.
(§4) The compounds of the invention, or their stereoisomers, tautomers, esterified or amidated prodrugs, or pharmaceutically acceptable salts and mixtures have been subjected to test to determined their therapeutic effects in the treatment of HCV infection. […] Moreover, the results of 6a-6ep(Ia), 6fa-6gq(Ib) and reference compounds Ref-1(BMS-790052), Ref-2(GS5885), Ref-3 in HCV-NS5 inhibition test reveal that the cyclopentanyl/hexamethyleneamino radical containing linear polypeptide compounds 6a-6ep, 6fa-6gq and reference compounds Ref-1, Ref-2, Ref-3 have good HCV inhibitory results. […] The replicons GT-1a, GT-lb, GT-2a, GT-3a, GT-4a, GT-5a and GT-6a used for the test are routine replicons commercially available in this field. Table 1: HCV NS5A replicon inhibitory activity test results of compounds (6a-6gq) of the invention

HCV NS5A replicon GT-6a = experiment: HCV NS5A replicon anti-viral activity (EC50), GT-6a; type: cell-based; settings: Hepatitis C virus, genotype 1a / genotype 6a; GT-6a replicon; read-out: Inhibitory activity against various HCV-NS5A subtypes(EC50, GT-1a to GT-6a) GT-6a
Source text: as §1, §2, §3, §4

HCV NS5A replicon GT-5a = experiment: HCV NS5A replicon anti-viral activity (EC50), GT-5a; type: cell-based; settings: Hepatitis C virus, genotype 1a / genotype 5a / genotype 6a, read-out: Inhibitory activity against various HCV-NS5A subtypes(EC50, GT-1a to GT-6a) GT-5a
Source text: as §1, §2, §3, §4

HCV NS5A replicon GT-lb = experiment: HCV NS5A replicon anti-viral activity (EC50), GT-1b; type: cell-based; settings: Hepatitis C virus, genotype 1a / genotype 6a, read-out: Inhibitory activity against various HCV-NS5A subtypes(EC50, GT-1a to GT-6a) GT-lb
Source text: as §1, §2, §3, §4

HCV NS5A replicon GT-1a = experiment: HCV NS5A replicon anti-viral activity (EC50), dual-reporter Renilla luciferase, GT-1a; type: cell-based; settings: for inhibitory activity compared with Ref-1(BMS-790052), Ref-2(GS5885), Ref-3 and Ref-4 (in words): comparison drawn from Table 2
Source text: as §1, §2, §3, §4

HCV NS5A replicon GT-4a = experiment: HCV NS5A replicon anti-viral activity (EC50), GT-4a; type: cell-based; settings: Hepatitis C virus, genotype 1a / genotype 4a / genotype 6a, read-out: Inhibitory activity against various HCV-NS5A subtypes(EC50, GT-1a to GT-6a) GT-4a
Source text: as §1, §2, §3, §4

HCV NS5A replicon GT-2a = experiment: HCV NS5A replicon anti-viral activity (EC50), GT-2a; type: cell-based; settings: Hepatitis C virus, genotype 1a / genotype 2a / genotype 6a; GT-2a replicon; read-out: Inhibitory activity against various HCV-NS5A subtypes(EC50, GT-1a to GT-6a) GT-2a
Source text: as §1, §2, §3, §4

ICR mice = experiment: MTD screening test (acute toxicity study) in mice; type: in vivo; settings: high dosage
Method: Method: ICR mice, 10 mice/group, 5 males and 5 females. A treatment group and a control group are set up for every drugs, respectively, mice in control group were administered 0.5%CMC-Na solution, i.e. the solvent of the drugs. The mice were fasted overnight but granted free access to water before the administration. Their body weight before the administration of drugs is in the range of 18.8∼24.1 g. The mice were administered the drugs by peroral lavage at the dosage of 40 mL/kg. The mice were closely observed 3 hours after the administration and twice a day afterwards for 7 days, one in the morning and one in the afternoon. At the end of the observation period, 2 mice (1 male and 1 female) were randomly selected from each treatment group and subjected to histopathological examination of part of their tissues and organs.
Two third of the novel heterocyclic compounds that have good HCV inhibiting activity (EC50: <0.05nM) after administration of the drugs by lavage at the dosage of 2000mg/kg yield a survival rate of 100%. […] Two third of the novel compounds that show high HCV inhibiting activity have very low overall toxicity (survive rate of mice after administration: 100%). It is believed that these compounds are generally nontoxic.

[1] = Hepatitis C virus, GT1A, GT-1a replicon, read-out: NS5A Inhibitory Activity (EC50 of GT-1a subtype inhibition)
[2] = Hepatitis C virus, genotype 1a / genotype 6a, read-out: Inhibitory activity against various HCV-NS5A subtypes(EC50, GT-1a to GT-6a) GT-1a
[3] = Hepatitis C virus, GT1A, read-out: NS5A Inhibitory Activity (EC50 of GT-1a subtype inhibition)

COC(=O)N[C@H](C(=O)N1CC=C[C@H]1c1ncc(-c2ccc(-c3ccc(-c4c[nH]c([C@@H]5CCCN5C(=O)[C@@H](NC(=O)OC)C(C)C)n4)cc3)cc2)[nH]1)C(C)C [6ba]
EC50 (HCV NS5A replicon GT-3a): 0.173 nM
EC50 (HCV NS5A replicon GT-6a): 0.221 nM
EC50 (HCV NS5A replicon GT-5a): 0.023 nM
EC50 (HCV NS5A replicon GT-lb): 0.012 nM
EC50 (HCV NS5A replicon GT-1a; [1]): 0.001 to 0.999 nM
EC50 (HCV NS5A replicon GT-1a; [2]): 0.039 nM
EC50 (HCV NS5A replicon GT-4a): 0.01 nM
EC50 (HCV NS5A replicon GT-2a): 0.016 nM

COC(=O)N[C@H](C(=O)N1CCC[C@H]1c1nc(-c2ccc(-c3ccc(-c4cnc([C@@H]5C=CCN5C(=O)[C@H](NC(=O)OC)c5ccccc5)[nH]4)cc3)cc2)c[nH]1)C(C)C [6dy]
EC50 (HCV NS5A replicon GT-3a): 0.015 nM
EC50 (HCV NS5A replicon GT-6a): 0.024 nM
EC50 (HCV NS5A replicon GT-5a): 0.023 nM
EC50 (HCV NS5A replicon GT-lb): 0.014 nM
EC50 (HCV NS5A replicon GT-1a; [1]): 0.001 to 0.999 nM
EC50 (HCV NS5A replicon GT-1a; [2]): 0.011 nM
inhibitory activity compared with Ref-1(BMS-790052), Ref-2(GS5885), Ref-3 and Ref-4 (in words) (HCV NS5A replicon GT-1a): significantly superior
toxicity (in words) (ICR mice): low toxicity at high dosage
EC50 (HCV NS5A replicon GT-4a): 0.008 nM
EC50 (HCV NS5A replicon GT-2a): 0.006 nM

COC(=O)N[C@H](C(=O)N1CC=C[C@H]1c1ncc(-c2ccc(-c3cc4sc(-c5cnc([C@@H]6CCCN6C(=O)[C@H](NC(=O)OC)c6ccccc6)[nH]5)cc4s3)cc2)[nH]1)C(C)C [6fd]
EC50 (HCV NS5A replicon GT-3a): 0.026 nM
EC50 (HCV NS5A replicon GT-6a): 0.055 nM
EC50 (HCV NS5A replicon GT-5a): 0.013 nM
EC50 (HCV NS5A replicon GT-lb): 0.005 nM
EC50 (HCV NS5A replicon GT-1a; [1]): 0.001 to 0.999 nM
EC50 (HCV NS5A replicon GT-1a; [2]): 0.02 nM
EC50 (HCV NS5A replicon GT-4a): 0.005 nM
EC50 (HCV NS5A replicon GT-2a): 0.007 nM

COC(=O)N[C@H](C(=O)N1CCC[C@H]1c1ncc(-c2ccc(-c3cc4sc(-c5cnc([C@@H]6C=CCN6C(=O)[C@H](NC(=O)OC)c6ccccc6)[nH]5)cc4s3)cc2)[nH]1)C(C)C [6fg]
EC50 (HCV NS5A replicon GT-3a): 0.024 nM
EC50 (HCV NS5A replicon GT-6a): 0.023 nM
EC50 (HCV NS5A replicon GT-5a): 0.029 nM
EC50 (HCV NS5A replicon GT-lb): 0.013 nM
EC50 (HCV NS5A replicon GT-1a; [1]): 0.001 to 0.999 nM
EC50 (HCV NS5A replicon GT-1a; [2]): 0.009 nM
inhibitory activity compared with Ref-1(BMS-790052), Ref-2(GS5885), Ref-3 and Ref-4 (in words) (HCV NS5A replicon GT-1a): significantly superior
EC50 (HCV NS5A replicon GT-4a): 0.012 nM
EC50 (HCV NS5A replicon GT-2a): 0.008 nM

COC(=O)N[C@@H](C(=O)N1CC=C[C@H]1c1ncc(-c2ccc(-c3csc4c(-c5c[nH]c([C@@H]6CCCN6C(=O)[C@H](NC(=O)OC)c6ccccc6)n5)csc34)cc2)[nH]1)c1ccccc1 [6fm]
EC50 (HCV NS5A replicon GT-1a; [1]): 0.001 to 0.999 nM
toxicity (in words) (ICR mice): low toxicity at high dosage

COC(=O)N[C@H](C(=O)N1CCC[C@H]1c1nc2ccc(-c3csc4c(-c5ccc(-c6ccc7nc([C@@H]8C=CCN8C(=O)[C@H](NC(=O)OC)c8ccccc8)[nH]c7c6)cc5)csc34)cc2[nH]1)C(C)C [6gq]
EC50 (HCV NS5A replicon GT-1a; [1]): 0.001 to 0.999 nM

CC(C)[C@H](NC(=O)OC(C)(C)C)C(=O)N1C[C@H](OC(=O)N2Cc3cc4c(cc3C2)OCO4)C[C@H]1c1nc(-c2ccc(-c3ccc(-c4cnc([C@@H]5C[C@@H](OC(=O)N6Cc7cc8c(cc7C6)OCO8)CN5C(=O)[C@@H](NC(=O)OC(C)(C)C)C(C)C)[nH]4)cc3)cc2)c[nH]1 [6p]
EC50 (HCV NS5A replicon GT-1a; [3]): > 50 nM

COC(=O)N[C@H](C(=O)N1CCC[C@H]1c1nc(-c2ccc(-c3ccc(-c4c[nH]c([C@@H]5C[C@@H](Oc6nc7ccccc7nc6-c6cccs6)CN5C(=O)[C@@H](NC(=O)OC)C(C)C)n4)cc3)cc2)c[nH]1)C(C)C [6w]
EC50 (HCV NS5A replicon GT-1a; [1]): > 50 nM

COC(=O)N[C@H](C(=O)N1CCC[C@H]1c1nc(-c2ccc(-c3ccc(-c4c[nH]c([C@@H]5C[C@H](Oc6nc7ccccc7nc6-c6cccs6)CN5C(=O)[C@@H](NC(=O)OC)C(C)C)n4)cc3)cc2)c[nH]1)C(C)C [6x]
EC50 (HCV NS5A replicon GT-1a; [1]): 0.001 to 0.999 nM

COC(=O)N[C@H](C(=O)N1CCC[C@H]1c1nc(-c2ccc(-c3ccc(-c4cnc([C@@H]5CCCN5C(=O)[C@@H](NC(=O)OC)C(C)C)[nH]4)cc3)cc2)c[nH]1)C(C)C [Ref-1, BMS-790052, reference compound]
EC50 (HCV NS5A replicon GT-3a): 0.218 nM
EC50 (HCV NS5A replicon GT-6a): 0.118 nM
EC50 (HCV NS5A replicon GT-5a): 0.036 nM
EC50 (HCV NS5A replicon GT-lb): 0.021 nM
EC50 (HCV NS5A replicon GT-1a; [1]): 0.001 to 0.999 nM
EC50 (HCV NS5A replicon GT-1a; [2]): 0.052 nM
EC50 (HCV NS5A replicon GT-4a): 0.011 nM
EC50 (HCV NS5A replicon GT-2a): 0.029 nM

COC(=O)N[C@H](C(=O)N1CC2(CC2)C[C@H]1c1nc(-c2ccc3c(c2)C(F)(F)c2cc(-c4ccc5[nH]c([C@@H]6[C@H]7CC[C@H](C7)N6C(=O)[C@@H](NC(=O)OC)C(C)C)nc5c4)ccc2-3)c[nH]1)C(C)C [Ref-2, GS5885, reference compound]
EC50 (HCV NS5A replicon GT-1a; [3]): 0.001 to 0.999 nM
EC50 (HCV NS5A replicon GT-1a; [2]): 0.088 nM

COC(=O)N[C@@H](C(=O)N1CCC[C@H]1c1ncc(-c2ccc(-c3cc4sc(-c5cnc([C@@H]6CCCN6C(=O)[C@H](NC(=O)OC)c6ccccc6)[nH]5)cc4s3)cc2)[nH]1)c1ccccc1 [Ref-3, reference compound]
EC50 (HCV NS5A replicon GT-1a; [1]): 0.001 to 0.999 nM
EC50 (HCV NS5A replicon GT-1a; [2]): 0.051 nM

COC(=O)N[C@H](C(=O)N1CCC[C@H]1c1nc2cc(-c3csc4c(-c5ccc(-c6c[nH]c([C@@H]7CCCN7C(=O)[C@H](NC(=O)OC)c7ccccc7)n6)cc5)csc34)ccc2[nH]1)C(C)C [Ref-4, IDX-719, reference compound]
EC50 (HCV NS5A replicon GT-1a; GT-1a replicon, read-out: Inhibitory activity against various HCV-NS5A subtypes(EC50, GT-1a to GT-6a) GT-1a): 0.022 nM
EC50 (HCV NS5A replicon GT-1a; GT-1a replicon, read-out: NS5A Inhibitory Activity (EC50 of GT-1a subtype inhibition)): 0.001 to 0.999 nM
